Measured values as given in patent US6972296B2, “Carboxylic acid derivatives that inhibit the binding of integrins to their receptors” (Encysive Pharmaceuticals Inc., priority 1999, dated 2005).
Each block holds one compound with its values, some of them ahead of it.

Molecular target: T1, α4β1 integrin (Homo sapiens, UniProt P05556+P13612)
T1 construct: endogenous in cells; host or cells: Ramos cells
Experiment: Adhesion of calcein-labeled Ramos cells to CS1 (fibronectin) peptide conjugated ovalbumin
Format: cell-based
Settings: Ramos cell adhesion to CS1 conjugated ovalbumin
Method in brief: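 Plates bearing CS1 fibronectin peptide coupled to ovalbumin (0.5 μg/ml coat, 3% BSA block) received calcein-labelled Ramos cells plus compound (100 μM stated) for 30 min at 37 °C. Buffer was TBS pH 7.5 with 1 mM Mg2+, Ca2+, Mn2+; bound cells quantified by fluorescence after lysis; […].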

[1] = Table 5, dose required to give 50% inhibition
[2] = Table 7, dose required to give 50% inhibition

T1 sequence (P13612 34-1032): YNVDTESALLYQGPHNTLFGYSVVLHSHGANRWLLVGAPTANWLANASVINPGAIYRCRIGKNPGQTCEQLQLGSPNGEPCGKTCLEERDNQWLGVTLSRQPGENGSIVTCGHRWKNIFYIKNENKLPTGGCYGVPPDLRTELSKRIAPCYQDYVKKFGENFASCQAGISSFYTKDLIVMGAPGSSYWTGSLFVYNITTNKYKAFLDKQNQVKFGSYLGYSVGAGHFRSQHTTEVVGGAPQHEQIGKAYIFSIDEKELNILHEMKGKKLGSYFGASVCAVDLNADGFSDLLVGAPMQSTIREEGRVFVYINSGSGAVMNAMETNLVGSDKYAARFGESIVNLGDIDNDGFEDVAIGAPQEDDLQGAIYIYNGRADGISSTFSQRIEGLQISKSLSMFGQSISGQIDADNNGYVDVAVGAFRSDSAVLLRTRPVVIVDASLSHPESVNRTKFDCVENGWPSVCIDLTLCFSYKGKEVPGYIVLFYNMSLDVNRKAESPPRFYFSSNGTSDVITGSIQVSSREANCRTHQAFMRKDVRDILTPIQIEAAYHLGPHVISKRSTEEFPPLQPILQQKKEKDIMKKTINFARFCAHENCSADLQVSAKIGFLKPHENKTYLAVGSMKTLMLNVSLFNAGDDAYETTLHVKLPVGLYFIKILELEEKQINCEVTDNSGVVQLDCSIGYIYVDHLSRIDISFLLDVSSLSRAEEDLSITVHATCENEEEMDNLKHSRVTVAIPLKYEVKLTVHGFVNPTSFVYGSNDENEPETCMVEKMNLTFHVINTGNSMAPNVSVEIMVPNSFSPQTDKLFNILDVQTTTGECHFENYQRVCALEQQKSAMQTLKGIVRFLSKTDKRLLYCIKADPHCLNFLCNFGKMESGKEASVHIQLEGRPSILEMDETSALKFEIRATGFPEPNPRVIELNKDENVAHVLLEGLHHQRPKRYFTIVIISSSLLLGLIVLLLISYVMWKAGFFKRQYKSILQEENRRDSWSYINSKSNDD
T1 sequence (P05556 21-798): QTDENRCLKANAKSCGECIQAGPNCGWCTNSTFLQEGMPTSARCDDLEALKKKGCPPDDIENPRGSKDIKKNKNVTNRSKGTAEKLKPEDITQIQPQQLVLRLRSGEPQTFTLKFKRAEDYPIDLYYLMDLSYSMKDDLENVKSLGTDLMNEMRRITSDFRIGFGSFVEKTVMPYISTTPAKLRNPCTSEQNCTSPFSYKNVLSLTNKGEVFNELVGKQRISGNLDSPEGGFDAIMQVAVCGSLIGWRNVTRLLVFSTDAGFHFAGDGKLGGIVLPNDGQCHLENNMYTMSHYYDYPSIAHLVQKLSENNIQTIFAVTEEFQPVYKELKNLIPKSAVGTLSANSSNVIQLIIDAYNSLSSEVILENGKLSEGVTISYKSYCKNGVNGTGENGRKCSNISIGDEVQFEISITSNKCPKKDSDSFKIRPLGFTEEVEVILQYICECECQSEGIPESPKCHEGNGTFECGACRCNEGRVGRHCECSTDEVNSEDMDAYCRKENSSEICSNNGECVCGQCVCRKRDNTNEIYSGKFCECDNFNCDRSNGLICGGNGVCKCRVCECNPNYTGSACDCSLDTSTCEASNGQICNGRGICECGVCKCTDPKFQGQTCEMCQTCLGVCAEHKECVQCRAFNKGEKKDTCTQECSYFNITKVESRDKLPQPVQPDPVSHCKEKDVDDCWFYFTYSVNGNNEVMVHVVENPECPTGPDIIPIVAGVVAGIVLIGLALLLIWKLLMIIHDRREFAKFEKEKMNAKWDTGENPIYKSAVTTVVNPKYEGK

Compound: O=C(O)C[C@H](NC(=O)Nc1c(O)c2c(n(Cc3ccccc3Cl)c1=O)CCC2)c1cccc(OC(F)(F)C(F)F)c1
IC50 [2]: 4 nM

Compound: COc1cccc(OC)c1Cn1ccc(O)c(NC(=O)N[C@@H](CC(=O)O)c2ccc(C)cc2)c1=O [(3S)-3-[({[1-(2,6-dimethoxybenzyl)-4-hydroxy-2-oxo-1,2-dihydropyridin-3-yl]amino}carbonyl)amino]-3-(4-methylphenyl)propanoic acid]
IC50 [1]: 10 nM

Compound: Cc1ccc([C@H](CC(=O)O)NC(=O)Nc2c(O)c(C)cn(Cc3c(F)cccc3F)c2=O)cc1
IC50 (Table 6, 30 minutes at 37° C.): 25 nM

Compound: Cc1ccc([C@H](CC(=O)O)NC(=O)Nc2c(O)c(C)cn(Cc3cc(Cl)ccc3F)c2=O)cc1
IC50 (Table 6, 30 minutes at 37° C.): 15 nM

Compound: Cc1ccc([C@H](CC(=O)O)NC(=O)Nc2c(O)c3ccccc3n(Cc3ccccc3Cl)c2=O)cc1C
IC50 (Table 6, 30 minutes at 37° C.): 25 nM

Compound: CCOc1cc([C@H](CC(=O)O)NC(=O)Nc2c(O)c(C)cn(Cc3ccccc3Cl)c2=O)ccc1-c1ccccc1
IC50 [2]: 25 nM

Compound: Cc1ccc([C@H](CC(=O)O)NC(=O)Nc2cccn(Cc3csc(C)n3)c2=O)cc1
IC50 (Table 4, 30 minutes at 37° C.): 1000 nM

Compound: Cc1ccc([C@H](CC(=O)O)NC(=O)Nc2cccn(Cc3ccccc3-c3ccccc3)c2=O)cc1
IC50 (Table 4, 30 minutes at 37° C.): 2500 nM

Compound: Cc1ccc([C@H](CC(=O)O)NC(=O)Nc2c(O)c(C)cn(Cc3c(F)cccc3C(F)(F)F)c2=O)cc1
IC50 (Table 6, 30 minutes at 37° C.): 100 nM

Compound: O=C(O)C[C@H](NC(=O)Nc1cccn(Cc2cccc(C(F)(F)F)c2)c1=O)c1ccc2c(c1)OCO2
IC50 (Table 4, 30 minutes at 37° C.): 800 nM

Compound: O=C(O)C[C@H](NC(=O)Nc1c(O)c2c(n(Cc3ccccc3Cl)c1=O)CCC2)c1cccc(OCC2CC2)c1 [(3S)-3-[({[1-(2-chlorobenzyl)-4-hydroxy-2-oxo-2,5,6,7-tetrahydro-1H-cyclopenta[b]pyridin-3-yl]amino}carbonyl)amino]-3-[3-(cyclopropylmethoxy)phenyl]propanoic acid]
IC50 [2]: 9 nM

Compound: Cn1ccc2cc([C@H](CC(=O)O)NC(=O)Nc3c(O)c4c(n(Cc5ccccc5Cl)c3=O)CCC4)ccc21 [(3S)-3-[({[1-(2-chlorobenzyl)-4-hydroxy-2-oxo-2,5,6,7-tetrahydro-1H-cyclopenta[b]pyridin-3-yl]amino}carbonyl)amino]-3-(1-methyl-1H-indol-5-yl)propanoic acid]
IC50 [2]: 4 nM

Compound: CCOc1cccc(Cl)c1Cn1c(C)c(CC)c(O)c(NC(=O)N[C@@H](CC(=O)O)c2ccc(C)cc2)c1=O
IC50 [2]: 4 nM

Compound: Cc1cccc([C@H](CC(=O)O)NC(=O)Nc2c(O)c3c(n(Cc4c(C)cccc4Cl)c2=O)CCC3)c1
IC50 [2]: 4 nM

Compound: CCOc1cccc(Cl)c1Cn1ccc(O)c(NC(=O)N[C@@H](CC(=O)O)c2cccc(OC(C)C)c2)c1=O [(3S)-3-[({[1-(2-chloro-6-ethoxybenzyl)-4-hydroxy-2-oxo-1,2-dihydropyridin-3-yl]amino}carbonyl)amino]-3-(3-isopropoxyphenyl)propanoic acid]
IC50 [2]: 3 nM

Compound: CCOc1ccc(Cl)c(Cn2cc(C)c(O)c(NC(=O)N[C@@H](CC(=O)O)c3ccc(C)cc3)c2=O)c1
IC50 [2]: 4 nM

Compound: Cc1ccc([C@H](CC(=O)O)NC(=O)Nc2c(O)cc(C)n(Cc3ccccc3)c2=O)cc1
IC50 (Table 4, 30 minutes at 37° C.): 35 nM

Compound: Cc1ccc([C@H](CC(=O)O)NC(=O)Nc2cccn(Cc3c(F)cccc3Cl)c2=O)cc1
IC50 (Table 4, 30 minutes at 37° C.): 100 nM

Compound: Cc1ccc([C@H](CC(=O)O)NC(=O)Nc2c(O)ccn(Cc3c(C)cccc3C)c2=O)cc1
IC50 [1]: 35 nM

Compound: CCOc1cccc([C@H](CC(=O)O)NC(=O)Nc2c(O)c3c(n(Cc4c(OCC)ccc(Cl)c4Cl)c2=O)CCC3)c1
IC50 [2]: 3 nM

Compound: O=C(O)C[C@H](NC(=O)Nc1cccn(Cc2ccc(F)cc2)c1=O)c1ccc2c(c1)OCO2
IC50 (Table 4, 30 minutes at 37° C.): 2000 nM

Compound: Cc1ccc([C@H](CC(=O)O)NC(=O)Nc2c(O)c(C)c(C)n(Cc3ccccc3Cl)c2=O)cc1 [(3S)-3-[({[1-(2-chlorobenzyl)-4-hydroxy-5,6-dimethyl-2-oxo-1,2-dihydropyridin-3-yl]amino}carbonyl)amino]-3-(4-methylphenyl)propanoic acid]
IC50 [1]: 6 nM

Compound: O=C(O)C[C@H](NC(=O)N[C@H]1CCCN(Cc2cccs2)C1=O)c1ccc2c(c1)OCO2 [(3S)-3-(1,3-benzodioxol-5-yl)-3-[({[(3S)-2-oxo-1-(2-thienylmethyl)hexahydro-3-pyridinyl]amino}carbonyl)amino]propanoic acid]
IC50 (Table 2, 30 minutes at 37° C.): 200 nM

Compound: Cc1ccc([C@H](CC(=O)O)NC(=O)Nc2c(O)c(C)cn(Cc3c(Cl)cccc3OCC(C)C)c2=O)cc1
IC50 [2]: 22 nM

Compound: Cc1ccc([C@H](CC(=O)O)NC(=O)Nc2c(O)c(C)cn(Cc3c(C)cccc3Cl)c2=O)cc1 [(3S)-3-[({[1-(2-chloro-6-methylbenzyl)-4-hydroxy-5-methyl-2-oxo-1,2-dihydropyridin-3-yl]amino}carbonyl)amino]-3-(4-methylphenyl)propanoic acid]
IC50 [1]: 10 nM

Compound: Cc1ccc([C@H](CC(=O)O)NC(=O)Nc2cccn(Cc3ccc(Cl)s3)c2=O)cc1
IC50 (Table 4, 30 minutes at 37° C.): 1300 nM

Compound: Cc1ccc([C@H](CC(=O)O)NC(=O)Nc2cccn(Cc3ccccc3[N+](=O)[O-])c2=O)cc1
IC50 (Table 4, 30 minutes at 37° C.): 1000 nM

Now from value to compound:

IC50 [1]: 50 nM
Compound: Cc1ccc(C)c([C@H](CC(=O)O)NC(=O)Nc2c(O)ccn(Cc3ccccc3Cl)c2=O)c1

IC50 [1]: 3 nM
Compound: COc1cc([C@H](CC(=O)O)NC(=O)Nc2c(O)ccn(Cc3ccccc3Cl)c2=O)ccc1C [(3S)-3-[({[1-(2-chlorobenzyl)-4-hydroxy-2-oxo-1,2-dihydropyridin-3-yl]amino}carbonyl)amino]-3-(3-methoxy-4-methylphenyl)propanoic acid]

IC50 [1]: 3 nM
Compound: Cc1ccc([C@H](CC(=O)O)NC(=O)Nc2c(O)ccn(Cc3cc(S(C)(=O)=O)ccc3Cl)c2=O)cc1 [(3S)-3-{[({1-[2-chloro-5-(methylsulfonyl)benzyl]-4-hydroxy-2-oxo-1,2-dihydropyridin-3-yl}amino)carbonyl]amino}-3-(4-methylphenyl)propanoic acid]

IC50 [1]: 45 nM
Compound: Cc1ccc([C@H](CC(=O)O)NC(=O)Nc2c(O)ccn(Cc3ccc(Cl)c(Cl)c3)c2=O)cc1

IC50 [1]: 25 nM
Compound: Cc1ccc([C@H](CC(=O)O)NC(=O)Nc2c(O)ccn(Cc3ccccc3OC(F)(F)F)c2=O)cc1

IC50 (Table 4, 30 minutes at 37° C.): 2000 nM
Compound: O=C(O)C[C@@H](NC(=O)Nc1cccn(Cc2ccccc2Cl)c1=O)c1ccc2c(c1)OCO2

IC50 (Table 4, 30 minutes at 37° C.): 100 nM
Compound: O=C(O)C[C@H](NC(=O)Nc1cccn(Cc2ccccc2Cl)c1=O)c1ccc(O)cc1 [(3S)-3-{[({1-[(2-chlorophenyl)methyl]-2-oxo-1,2-dihydro-3-pyridinyl}amino)carbonyl]amino}-3-(4-hydroxyphenyl)propanoic acid]

IC50 (Table 3, 30 minutes at 37° C.): 20 nM
Compound: Cc1cccc([C@H](CC(=O)O)NC(=O)Nc2c(O)ccn(Cc3ccccc3Cl)c2=O)c1 [(3S)-3-{[({1-[(2-chlorophenyl)methyl]-4-hydroxy-2-oxo-1,2-dihydro-3-pyridinyl}amino)carbonyl]amino}-3-(3-methylphenyl)propanoic acid]

IC50 (Table 3, 30 minutes at 37° C.): 5 nM
Compound: Cc1ccc([C@H](CC(=O)O)NC(=O)Nc2c(N3CCC3)ccn(Cc3ccccc3Cl)c2=O)cc1 [(3S)-3-{[({4-(1-azetanyl)-1-[(2-chlorophenyl)methyl]-2-oxo-1,2-dihydro-3-pyridinyl}amino)carbonyl]amino}-3-(4-methylphenyl)propanoic acid]

IC50 [2]: 10 nM
Compound: Cc1cn(Cc2ccccc2Cl)c(=O)c(NC(=O)NC(CC(=O)O)c2cccc(N3CCCC3)c2)c1O (stereo not shown)

IC50 (Table 3, 30 minutes at 37° C.): 10 nM
Compound: Cc1ccc([C@H](CC(=O)O)NC(=O)Nc2c(C)ccn(Cc3ccccc3Cl)c2=O)cc1C [(3S)-3-{[({1-[(2-chlorophenyl)methyl]-4-methyl-2-oxo-1,2-dihydro-3-pyridinyl}amino)carbonyl]amino}-3-(3,4-dimethylphenyl)propanoic acid]

IC50 (Table 3, 30 minutes at 37° C.): 20 nM
Compound: O=C(O)C[C@H](NC(=O)Nc1c(O)ccn(Cc2ccccc2Cl)c1=O)c1ccc2c(c1)OCO2

IC50 [1]: 3 nM
Compound: CCOc1cccc([C@H](CC(=O)O)NC(=O)Nc2c(O)ccn(Cc3ccccc3Cl)c2=O)c1 [(3S)-3-[({[1-(2-chlorobenzyl)-4-hydroxy-2-oxo-1,2-dihydropyridin-3-yl]amino}carbonyl)amino]-3-(3-ethoxyphenyl)propanoic acid]

IC50 (Table 4, 30 minutes at 37° C.): 100 nM
Compound: Cc1ccc([C@H](CC(=O)O)NC(=O)Nc2cccn(Cc3ccccc3Cl)c2=O)cc1

IC50 [1]: 20 nM
Compound: O=C(O)CC(NC(=O)Nc1c(O)ccn(Cc2ccccc2Cl)c1=O)c1ccc2ccccc2c1 (stereo not shown) [3-[({[1-(2-chlorobenzyl)-4-hydroxy-2-oxo-1,2-dihydropyridin-3-yl]amino}carbonyl)amino]-3-(2-naphthyl)propanoic acid]

IC50 [1]: 25 nM
Compound: COc1cc(Cl)ccc1Cn1ccc(O)c(NC(=O)N[C@@H](CC(=O)O)c2ccc(C)cc2)c1=O

IC50 (Table 4, 30 minutes at 37° C.): 1000 nM
Compound: O=C(O)CC(NC(=O)Nc1cccn(Cc2ccccc2Cl)c1=O)c1ccc(Cl)c(Cl)c1 (stereo not shown)

IC50 [1]: 6 nM
Compound: O=C(O)C[C@H](NC(=O)Nc1c(O)ccn(Cc2ccccc2Cl)c1=O)c1cccc(OC(F)F)c1 [(3S)-3-[({[1-(2-chlorobenzyl)-4-hydroxy-2-oxo-1,2-dihydropyridin-3-yl]amino}carbonyl)amino]-3-[3-(difluoromethoxy)phenyl]propanoic acid]

IC50 (Table 3, 30 minutes at 37° C.): 20 nM
Compound: COc1cc([C@H](CC(=O)O)NC(=O)Nc2c(O)ccn(Cc3ccccc3Cl)c2=O)cc(OC)c1OC

IC50 [1]: 7 nM
Compound: Cc1ccc([C@H](CC(=O)O)NC(=O)Nc2c(O)ccn(Cc3ccc(Cl)cc3)c2=O)cc1 [(3S)-3-[({[1-(4-chlorobenzyl)-4-hydroxy-2-oxo-1,2-dihydropyridin-3-yl]amino}carbonyl)amino]-3-(4-methylphenyl)propanoic acid]

IC50 (Table 3, 30 minutes at 37° C.): 15 nM
Compound: Cc1ccc([C@H](CC(=O)O)NC(=O)Nc2c(F)ccn(Cc3ccccc3Cl)c2=O)cc1

IC50 [1]: 3 nM
Compound: COc1cccc(Cl)c1Cn1ccc(O)c(NC(=O)N[C@@H](CC(=O)O)c2ccc(C)cc2)c1=O [(3S)-3-[({[1-(2-chloro-6-methoxybenzyl)-4-hydroxy-2-oxo-1,2-dihydropyridin-3-yl]amino}carbonyl)amino]-3-(4-methylphenyl)propanoic acid]
